# According to the supplement of paper PMC10307832:
# Columns and labels:
# Assay in all cases: relative viability (nuclei count vs DMSO), 5 days (fraction); higher = more cells survive
# NCI-H1651 = system: NCI-H1651
# Procedure, shortened: (§1)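 Each reported value is a median over duplicate plates. It expresses relative viability: treated-well nuclei count divided by vehicle-well nuclei count. Lung cancer cell lines in 1536-well plates were dosed by pin tool a day after seeding, alone with one drug or with a fixed anchor-drug dose plus five library-drug doses (not always all listed) in √10 steps, and nuclei were counted after 5 days.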
# HARA = system: HARA
# Procedure, shortened: as §1
# NCI-H1755 = system: NCI-H1755
# Procedure, shortened: as §1
# NCI-H2085 = system: NCI-H2085
# Procedure, shortened: as §1
# NCI-H3122 = system: NCI-H3122
# Procedure, shortened: as §1
# NCI-H2087 = system: NCI-H2087
# Procedure, shortened: as §1
# HCC-78 = system: HCC-78
# Procedure, shortened: as §1
# LU99A = system: LU99A
# Procedure, shortened: as §1
# PC-3 [JPC-3] = system: PC-3 [JPC-3]
# Procedure, shortened: as §1
# HCC-366 = system: HCC-366
# Procedure, shortened: as §1
# 201T = system: 201T
# Procedure, shortened: as §1
# NCI-H358 = system: NCI-H358
# Procedure, shortened: as §1
# NCI-H1793 = system: NCI-H1793
# Procedure, shortened: as §1
# NCI-H522 = system: NCI-H522
# Procedure, shortened: as §1
# NCI-H322M = system: NCI-H322M
# Procedure, shortened: as §1
# NCI-H460 = system: NCI-H460
# Procedure, shortened: as §1
# NCI-H596 = system: NCI-H596
# Procedure, shortened: as §1
# H3255 = system: H3255
# Procedure, shortened: as §1
# NCI-H650 = system: NCI-H650
# Procedure, shortened: as §1
# NCI-H23 = system: NCI-H23
# Procedure, shortened: as §1
compound,measurement,setting,value
CCNC(=O)c1noc(-c2cc(C(C)C)c(O)cc2O)c1-c1ccc(CN2CCOCC2)cc1 [Luminespib] + NC(=O)Nc1cc(-c2cccc(F)c2)sc1C(=O)N[C@H]1CCCNC1 [AZD7762] (partner 0.2 µM),relative viability,NCI-H1651; first compound 0.002 µM,0.445
same,relative viability,NCI-H1651; first compound 0.006325 µM,0.441
same,relative viability,NCI-H1651; first compound 0.02 µM,0.277
same,relative viability,NCI-H1651; first compound 0.06325 µM,0.446
same,relative viability,NCI-H1651; first compound 0.2 µM,0.181
same,relative viability,HARA; first compound 0.002 µM,0.304
same,relative viability,HARA; first compound 0.006325 µM,0.291
same,relative viability,HARA; first compound 0.02 µM,0.511
same,relative viability,HARA; first compound 0.06325 µM,0.18
same,relative viability,HARA; first compound 0.2 µM,0.125
same,relative viability,NCI-H1755; first compound 0.002 µM,0.429
same,relative viability,NCI-H1755; first compound 0.006325 µM,0.355
same,relative viability,NCI-H1755; first compound 0.02 µM,0.352
same,relative viability,NCI-H1755; first compound 0.06325 µM,0.245
same,relative viability,NCI-H1755; first compound 0.2 µM,0.161
same,relative viability,NCI-H2085; first compound 0.002 µM,0.923
same,relative viability,NCI-H2085; first compound 0.006325 µM,0.909
same,relative viability,NCI-H2085; first compound 0.02 µM,0.694
same,relative viability,NCI-H2085; first compound 0.06325 µM,0.389
same,relative viability,NCI-H2085; first compound 0.2 µM,0.245
same,relative viability,NCI-H3122; first compound 0.002 µM,0.948
same,relative viability,NCI-H3122; first compound 0.006325 µM,0.942
same,relative viability,NCI-H3122; first compound 0.02 µM,0.626
same,relative viability,NCI-H3122; first compound 0.06325 µM,0.109
same,relative viability,NCI-H3122; first compound 0.2 µM,0.0654
same,relative viability,NCI-H2087; first compound 0.002 µM,1.34
same,relative viability,NCI-H2087; first compound 0.006325 µM,1.1
same,relative viability,NCI-H2087; first compound 0.02 µM,1.45
same,relative viability,NCI-H2087; first compound 0.06325 µM,0.19
same,relative viability,NCI-H2087; first compound 0.2 µM,0.117
same,relative viability,HCC-78; first compound 0.002 µM,0.562
same,relative viability,HCC-78; first compound 0.006325 µM,0.591
same,relative viability,HCC-78; first compound 0.02 µM,0.536
same,relative viability,HCC-78; first compound 0.06325 µM,0.497
same,relative viability,HCC-78; first compound 0.2 µM,0.333
same,relative viability,LU99A; first compound 0.002 µM,0.378
same,relative viability,LU99A; first compound 0.006325 µM,0.347
same,relative viability,LU99A; first compound 0.02 µM,0.214
same,relative viability,LU99A; first compound 0.06325 µM,0.0724
same,relative viability,LU99A; first compound 0.2 µM,0.0654
same,relative viability,PC-3 [JPC-3]; first compound 0.002 µM,0.747
same,relative viability,PC-3 [JPC-3]; first compound 0.006325 µM,0.86
same,relative viability,PC-3 [JPC-3]; first compound 0.02 µM,0.492
same,relative viability,PC-3 [JPC-3]; first compound 0.06325 µM,0.319
same,relative viability,PC-3 [JPC-3]; first compound 0.2 µM,0.337
same,relative viability,HCC-366; first compound 0.002 µM,0.392
same,relative viability,HCC-366; first compound 0.006325 µM,0.302
same,relative viability,HCC-366; first compound 0.02 µM,0.331
same,relative viability,HCC-366; first compound 0.06325 µM,0.0393
same,relative viability,HCC-366; first compound 0.2 µM,0.0222
same,relative viability,201T; first compound 0.002 µM,0.621
same,relative viability,201T; first compound 0.006325 µM,0.555
same,relative viability,201T; first compound 0.02 µM,0.525
same,relative viability,201T; first compound 0.06325 µM,0.516
same,relative viability,201T; first compound 0.2 µM,0.318
same,relative viability,NCI-H358; first compound 0.002 µM,0.607
same,relative viability,NCI-H358; first compound 0.006325 µM,0.632
same,relative viability,NCI-H358; first compound 0.02 µM,0.316
same,relative viability,NCI-H358; first compound 0.06325 µM,0.14
same,relative viability,NCI-H358; first compound 0.2 µM,0.134
same,relative viability,NCI-H1793; first compound 0.002 µM,0.406
same,relative viability,NCI-H1793; first compound 0.006325 µM,0.422
same,relative viability,NCI-H1793; first compound 0.02 µM,0.15
same,relative viability,NCI-H1793; first compound 0.06325 µM,0.0769
same,relative viability,NCI-H1793; first compound 0.2 µM,0.11
same,relative viability,NCI-H522; first compound 0.002 µM,0.866
same,relative viability,NCI-H522; first compound 0.006325 µM,0.93
same,relative viability,NCI-H522; first compound 0.02 µM,0.694
same,relative viability,NCI-H522; first compound 0.06325 µM,0.713
same,relative viability,NCI-H522; first compound 0.2 µM,0.353
same,relative viability,NCI-H322M; first compound 0.002 µM,0.585
same,relative viability,NCI-H322M; first compound 0.006325 µM,0.485
same,relative viability,NCI-H322M; first compound 0.02 µM,0.441
same,relative viability,NCI-H322M; first compound 0.06325 µM,0.376
same,relative viability,NCI-H322M; first compound 0.2 µM,0.391
same,relative viability,NCI-H460; first compound 0.002 µM,0.679
same,relative viability,NCI-H460; first compound 0.006325 µM,0.628
same,relative viability,NCI-H460; first compound 0.02 µM,0.717
same,relative viability,NCI-H460; first compound 0.06325 µM,0.0326
same,relative viability,NCI-H460; first compound 0.2 µM,0.0406
same,relative viability,NCI-H596; first compound 0.002 µM,1.11
same,relative viability,NCI-H596; first compound 0.006325 µM,1.17
same,relative viability,NCI-H596; first compound 0.02 µM,0.857
same,relative viability,NCI-H596; first compound 0.06325 µM,0.934
same,relative viability,NCI-H596; first compound 0.2 µM,0.879
same,relative viability,H3255; first compound 0.002 µM,0.857
same,relative viability,H3255; first compound 0.006325 µM,0.794
same,relative viability,H3255; first compound 0.02 µM,0.808
same,relative viability,H3255; first compound 0.06325 µM,0.774
same,relative viability,H3255; first compound 0.2 µM,0.31
same,relative viability,NCI-H650; first compound 0.002 µM,0.93
same,relative viability,NCI-H650; first compound 0.006325 µM,0.958
same,relative viability,NCI-H650; first compound 0.02 µM,0.587
same,relative viability,NCI-H650; first compound 0.06325 µM,0.139
same,relative viability,NCI-H650; first compound 0.2 µM,0.0919
same,relative viability,NCI-H23; first compound 0.002 µM,0.258
same,relative viability,NCI-H23; first compound 0.006325 µM,0.247
same,relative viability,NCI-H23; first compound 0.02 µM,0.259
same,relative viability,NCI-H23; first compound 0.06325 µM,0.133
same,relative viability,NCI-H23; first compound 0.2 µM,0.11
